This note sets out measurements from US5202351A, “1-phenylalkyl-3-phenylurea derivative” (Mitsubishi Kasei Corporation, priority 1990, dated 1993).

For assay [1], the system named is cholesterol level in the serum. The assay is described as follows: effect of reducing a lipid level in blood (serum cholesterol) in hamsters fed diet containing 1% cholesterol and 0.5% cholic acid. In kind it is in vivo, golden hamster (male). The following applies: percent inhibition of serum cholesterol relative to control, 1 mg/10 ml water/kg orally once a day, blood taken on fifth day 3 h after final administration; for inhibition in vivo at 1 mg/kg: Mesocricetus auratus, po, once a day, read-out: Reduction of Cholesterol in Blood. On the procedure:
The effect of reducing a lipid level in blood by the action of the compounds according to the present invention was determined as follows:
Male golden hamsters weighing from 80 to 100 g were randomly divided into groups. The hamsters were first fed standard laboratory diets (solid feed MF-1 for mouse/rat/hamster, manufactured by Oriental yeast Industries, KK) for 3 days. Then, they were fed the experimental diet containing 1% cholesterol and 0.5% cholic acid ad libitum. At the same time, the compounds of the invention formulated in a shown dose (1 mg/10 ml water/kg) were administrated to the hamsters orally once a day at a determined time. Water was administrated orally to the hamsters of control group in an amount of 10 ml per 1 kg of body weight. On fifth day of administrating the compounds, the hamsters were anesthetized with nembutal (Nembutal injection, manufactured by Dainabbot) three hours after the final administration of the test compound, and a blood sample was taken from abdominal cava. The serum was separated from the sample by centrifuging.
The cholesterol level in the serum was determined by using a blood cholesterol measuring kit, Determina-TC5 manufactured by Kyowa Medix Co. The results are represented by percent inhibition (%) of cholesterol level in serum relative to that of the control group, and shown in the following Table 20.

The target of another assay is T1, ACAT (Mesocricetus auratus, UniProt A0A1U8BU94).
T1 construct: each tissue specimen containing hamster liver microsome; from tissue; host or cells: hamster liver microsomes
T1 sequence (A0A1U8BU94 1-521): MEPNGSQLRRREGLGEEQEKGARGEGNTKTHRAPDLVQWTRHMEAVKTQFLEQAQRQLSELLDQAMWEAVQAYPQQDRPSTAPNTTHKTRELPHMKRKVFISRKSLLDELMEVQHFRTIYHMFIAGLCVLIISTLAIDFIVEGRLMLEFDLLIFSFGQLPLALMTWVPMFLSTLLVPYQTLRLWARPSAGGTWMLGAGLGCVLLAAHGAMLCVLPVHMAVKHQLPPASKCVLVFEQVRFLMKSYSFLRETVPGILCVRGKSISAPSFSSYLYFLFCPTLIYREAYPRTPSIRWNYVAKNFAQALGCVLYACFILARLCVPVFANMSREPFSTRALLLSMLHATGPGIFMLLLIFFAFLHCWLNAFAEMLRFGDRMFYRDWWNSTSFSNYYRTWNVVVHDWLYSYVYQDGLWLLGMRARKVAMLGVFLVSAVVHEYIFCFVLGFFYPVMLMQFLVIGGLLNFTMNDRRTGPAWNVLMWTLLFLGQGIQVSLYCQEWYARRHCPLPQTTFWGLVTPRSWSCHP
Put plainly: ACAT inhibitory action (cholesteryl oleate formation from radio-labelled oleoyl coenzyme A, liver microsome). The class given is biochemical. The following applies: hamster liver microsome; inhibition of cholesteryl oleate formation. On the procedure: The ACAT inhibitory action of the compounds of this invention was determined by the following method.
ACAT activity was determined by measuring the amount of ratio-active cholesteryl oleate formed from radio-labelled oleoyl coenzyme A in each tissue specimen containing hamster liver microsome. The reduction rates (%) in the amount of formation of cholesteryl oleate by the administration of the test compound in various concentrations (μM) as compared with as compared with the amount of formation in the control group to which no test compound was administrated were measured. The ACAT inhibitory action was evaluated by IC50, the concentration of the test compound necessary for inhibiting the activity of the enzyme by 50%, obtained from the reduction rates.

Assay [2] has as its system cholesterol level in the serum. Put plainly: effect of reducing a lipid level in blood (serum cholesterol) in hamsters fed diet containing 1% cholesterol and 0.5% cholic acid. In kind it is in vivo, golden hamster (male). The following applies: Mesocricetus auratus, po, 120 h, comparison compound; dose of 5 mg/kg p.o.; read-out: Reduction of Cholesterol in Blood.

Consider `CCCCC(CNC(=O)Nc1c(C(C)C)cccc1C(C)C)c1ccc2c(c1)OCO2` (single isomer, unassigned) [Example 62], for which the “Reduction of Cholesterol in Blood” value in assay [1] was 33%.
As for `CCCCCC(CNC(=O)Nc1c(C(C)C)cccc1C(C)C)c1cccc2c1OCO2` (single isomer, unassigned) [Example 63], the “Reduction of Cholesterol in Blood” value in assay [1] was 56%. This compound came in with an IC50 against ACAT of 5 nM.
Take `CCCCCC(CNC(=O)Nc1c(C(C)C)cccc1C(C)C)c1cccc2c1OCO2` (single isomer, unassigned) [Example 64]: in assay [1], the “Reduction of Cholesterol in Blood” value stood at 27%. Further, at ACAT, the IC50 turned out to be 12 nM.
Consider `CCCCC(CNC(=O)Nc1c(C(C)C)cccc1C(C)C)c1cccc2c1CCCC2` (single isomer, unassigned) [Example 65], for which the inhibition in vivo at 1 mg/kg in assay [1] stood at 44%. Also, at ACAT, the IC50 is 12 nM.
For `CCCCC(CNC(=O)Nc1c(C(C)C)cccc1C(C)C)c1cccc2c1CCCC2` (single isomer, unassigned) [Example 66], in assay [1], the “Reduction of Cholesterol in Blood” value stood at 40%. The compound also displayed an IC50 against ACAT of 28 nM.
`CCCCC(CNC(=O)Nc1c(C(C)C)cccc1C(C)C)c1ccc2c(c1)OCO2` (single isomer, unassigned; (+)) [Example 61, (+)-1-(2-(3,4-methylenedioxyphenyl)-hexyl)-3-(2,6-diisopropylphenyl)urea]: the inhibition in vivo at 1 mg/kg in assay [1] amounted to 45%.
For the compound `CC(C)c1cccc(C(C)C)c1NC(=O)NCC(c1ccccc1)C(C)(C)C` (stereo not shown) [Comparison, 1-(3,3-dimethyl-2-phenylbutyl)-3-(2,6-diisopropylphenyl)urea], in assay [2], the inhibition in vivo at 5 mg/kg came out at 5%.
Regarding `CCCCCC(CNC(=O)Nc1c(C(C)C)cccc1C(C)C)c1cccc2c1OCO2` (stereo not shown) [Example 1, 1-(2-(2,3-methylenedioxyphenyl)heptyl)-3-(2,6-diisopropylphenyl)urea], the inhibition in vivo at 1 mg/kg in assay [1] worked out at 34%.
`CCC(CNC(=O)Nc1c(C(C)C)cccc1C(C)C)c1cccc2c1OCO2` (stereo not shown) [Example 3] returned an IC50 against ACAT of 85 nM.
Still for that read-out and setting: in the case of `CC(C)c1cccc(C(C)C)c1NC(=O)NCC(c1cccc2c1OCO2)C(C)C` (stereo not shown) [Example 4] it was 28 nM.
As to `CCCC(CNC(=O)Nc1c(C(C)C)cccc1C(C)C)c1cccc2c1OCO2` (stereo not shown) [Example 5], on ACAT, the IC50 amounted to 56 nM.
In the case of `CCCCC(CNC(=O)Nc1c(C(C)C)cccc1C(C)C)c1cccc2c1OCO2` (stereo not shown) [Example 6], in assay [1], the inhibition in vivo at 1 mg/kg is 40%.
As to `CCCCCCC(CNC(=O)Nc1c(C(C)C)cccc1C(C)C)c1cccc2c1OCO2` (stereo not shown) [Example 8], half-maximal inhibition at ACAT (IC50) required 11 nM.
Same read-out and setting: in the case of `CCCCCCCC(CNC(=O)Nc1c(C(C)C)cccc1C(C)C)c1cccc2c1OCO2` (stereo not shown) [Example 9] it was 86 nM.
Turning to `CCC(CC)(CNC(=O)Nc1c(C(C)C)cccc1C(C)C)c1cccc2c1OCO2` [Example 11], in assay [1], the inhibition in vivo at 1 mg/kg turned out to be 31%. Besides, inhibition on ACAT was half-maximal at 32 nM (IC50).
On to `CC(C)c1cccc(C(C)C)c1NC(=O)NCC1(c2cccc3c2OCO3)CCCC1` [Example 12], for which, in assay [1], the inhibition in vivo at 1 mg/kg came out at 10%.
Regarding `CC(C)c1cccc(C(C)C)c1NC(=O)NCC1(c2cccc3c2OCO3)CCCCC1` [Example 13], the inhibition in vivo at 1 mg/kg in assay [1] is 19%.
For `CCCCC(CNC(=O)Nc1c(C(C)C)cccc1C(C)C)c1cccc2c1OCCO2` (stereo not shown) [Example 14], in assay [1], the inhibition in vivo at 1 mg/kg worked out at 30%.
Consider `CCCC(CNC(=O)Nc1c(C(C)C)cccc1C(C)C)c1ccc2c(c1)OCO2` (stereo not shown) [Example 16], for which the inhibition in vivo at 1 mg/kg in assay [1] came out at 34%.
Consider `CCCCC(CNC(=O)Nc1c(C(C)C)cccc1C(C)C)c1ccc2c(c1)OCO2` (stereo not shown) [Example 17], for which the inhibition in vivo at 1 mg/kg in assay [1] was found to be 34%. For the same compound, on ACAT, the IC50 is 9 nM.
In the case of `CCCCCC(CNC(=O)Nc1c(C(C)C)cccc1C(C)C)c1ccc2c(c1)OCO2` (stereo not shown) [Example 18], the inhibition in vivo at 1 mg/kg in assay [1] was 33%.
With `CCCCCCC(CNC(=O)Nc1c(C(C)C)cccc1C(C)C)c1ccc2c(c1)OCO2` (stereo not shown) [Example 19], in assay [1], the inhibition in vivo at 1 mg/kg is 23%.
`CC(C)CCCC(CNC(=O)Nc1c(C(C)C)cccc1C(C)C)c1ccc2c(c1)OCO2` (stereo not shown) [Example 20]: the inhibition in vivo at 1 mg/kg in assay [1] amounted to 46%.
On to `CCCCC(CNC(=O)Nc1c(C(C)C)cccc1C(C)C)c1ccc2c(c1)OCCO2` (stereo not shown) [Example 23], for which the inhibition in vivo at 1 mg/kg in assay [1] is 39%. The compound also yielded an IC50 against ACAT of 13 nM.
Consider `CCCCCC(CNC(=O)Nc1c(C(C)C)cccc1C(C)C)c1ccc2c(c1)OCCO2` (stereo not shown) [Example 24], for which the inhibition in vivo at 1 mg/kg in assay [1] stood at 41%.
Regarding `CCCCCCC(CNC(=O)Nc1c(C(C)C)cccc1C(C)C)c1ccc2c(c1)OCCO2` (stereo not shown) [Example 25], the inhibition in vivo at 1 mg/kg in assay [1] was found to be 39%.
As for `CCCCC(CNC(=O)Nc1c(C(C)C)cccc1C(C)C)c1ccc2c(c1)OCCCO2` (stereo not shown) [Example 26], the inhibition in vivo at 1 mg/kg in assay [1] turned out to be 40%.
Consider `CCCCCC(C)(CNC(=O)Nc1c(C(C)C)cccc1C(C)C)c1cccc2c1OCO2` (stereo not shown) [Example 29], for which, in assay [1], the inhibition in vivo at 1 mg/kg was found to be 61%. For the same compound, on ACAT, the IC50 was determined as 5 nM.
As for `CCCC(CCC)(CNC(=O)Nc1c(C(C)C)cccc1C(C)C)c1cccc2c1OCO2` [Example 30], the inhibition in vivo at 1 mg/kg in assay [1] came out at 18%.
Same read-out and setting: to `CCCCCC(CCCCC)(CNC(=O)Nc1c(C(C)C)cccc1C(C)C)c1cccc2c1OCO2` [Example 31] belongs 16%.
The compound `CCCCCC(CNC(=O)Nc1c(C)cccc1C)c1cccc2c1OCO2` (stereo not shown) [Example 33, 1-(2-(2,3-methylenedioxyphenyl)heptyl)-3-(2,6-dimethylphenyl)urea] had an IC50 on ACAT of 38 nM.
The compound `CCCCCC(CNC(=O)Nc1c(Cl)cccc1Cl)c1cccc2c1OCO2` (stereo not shown) [Example 34, 1-(2-(2,3-methylenedioxyphenyl)heptyl)-3-(2,6-dichlorophenyl)urea] displayed an IC50 against ACAT of 34 nM.
Compound `CCCCCC(CNC(=O)Nc1c(CC)cccc1CC)c1cccc2c1OCO2` (stereo not shown) [Example 35] came in with an IC50 against ACAT of 32 nM.
At ACAT, `CCCCCC(CNC(=O)Nc1c(CC)cccc1C(C)CC)c1cccc2c1OCO2` (stereo not shown) [Example 36] displayed an IC50 of 26 nM.
Same read-out and setting: to `CCCCCC(CNC(=O)Nc1c(OC)cccc1OC)c1cccc2c1OCO2` (stereo not shown) [Example 48, 1-(2-(2,3-methylenedioxyphenyl)heptyl)-3-(2,6-dimethoxyphenyl)urea] belongs 20 nM.
Regarding `CCCCC(CNC(=O)Nc1c(C(C)C)cccc1C(C)C)c1cc(OC)c2c(c1)OCO2` (stereo not shown) [Example 52, 1-(2-(3,4-methylenedioxy-5-methoxyphenyl)hexyl)-3-(2,6-diisopropylphenyl)urea], the inhibition in vivo at 1 mg/kg in assay [1] is 15%.
Consider `CCCCCC(CNC(=S)Nc1c(C(C)C)cccc1C(C)C)c1cccc2c1OCO2` (stereo not shown) [Example 54, 1-(2-(2,3-methylenedioxyphenyl)heptyl)-3-(2,6-diisopropylphenyl)thiourea], for which the inhibition in vivo at 1 mg/kg in assay [1] amounted to 21%.
The same measure, in the same setting: in the case of `CCCCC(CNC(=O)Nc1c(C(C)C)cccc1C(C)C)c1cccc2c1CCCC2` (stereo not shown) [Example 55, 1-(2-(2,3-tetramethylenephenyl)hexyl)-3-(2,6-diisopropylphenyl)urea] it was 35%.
On to `CCCCCC(CNC(=O)Nc1c(C(C)C)cccc1C(C)C)c1cccc2c1CCCC2` (stereo not shown) [Example 56], for which the inhibition in vivo at 1 mg/kg in assay [1] came to 42%. Also, the IC50 at ACAT came out at 4 nM.
As for `CC(C)CCCC(CNC(=O)Nc1c(C(C)C)cccc1C(C)C)c1cccc2c1CCCC2` (stereo not shown) [Example 57], in assay [1], the inhibition in vivo at 1 mg/kg stood at 38%.
